The record followed here is patent US9242928B2, “Compound, kinesin spindle protein inhibitor, and application thereof” (FUJITSU LIMITED, priority 2010, dated 2016).

The target in the experiment is T1, human KSP motor domain (Uniprot P52732, residues 1-387) (Homo sapiens, UniProt P52732).
T1 construct: human KSP motor domain (Uniprot P52732, residues 1-387); His6; made in house; host or cells: E. coli BL21 Star (DE3)
T1 sequence (P52732 1-387): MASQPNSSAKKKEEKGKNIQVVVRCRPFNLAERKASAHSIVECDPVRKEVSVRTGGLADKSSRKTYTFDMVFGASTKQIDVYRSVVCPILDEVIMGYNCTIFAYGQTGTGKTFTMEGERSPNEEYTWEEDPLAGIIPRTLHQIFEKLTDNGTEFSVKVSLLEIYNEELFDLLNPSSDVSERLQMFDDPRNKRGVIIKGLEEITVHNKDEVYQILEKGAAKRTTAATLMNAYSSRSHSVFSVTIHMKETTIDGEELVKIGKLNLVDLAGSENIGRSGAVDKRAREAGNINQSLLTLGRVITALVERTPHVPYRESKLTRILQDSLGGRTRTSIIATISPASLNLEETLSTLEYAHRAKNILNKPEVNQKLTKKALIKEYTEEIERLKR
Briefly: Inhibitory activity against kinesin spindle protein (microtubule-stimulated ATPase, quinaldine red Pi detection, absorbance at 525 nm). Conditions: 30 nM kinesin spindle protein, 1 mM ATP, 37° C., 20 min. In kind it is biochemical. Here is the method: Each of the compounds represented by Structural Formulas (1) to (4) was measured for inhibitory activity against a kinesin spindle protein by the following method referring to the methods described in Elizabeth B. Cogan et al., Analytical Biochemistry, 1999, 271, pp. 29-35 and Keith W. Rickert et al., Archives of Biochemistry and Biophysics, 2008, 469, pp. 220-231.
The human KSP motor domain (Uniprot P52732, residues 1-387) was cloned into the pRSETa vector (product of Invitrogen Co., Ltd) and expressed in E. coli BL21 Star (DE3) (product of Invitrogen Co., Ltd) with His6 tag for purification.
Each of the compounds represented by Structural Formulas (1) to (4) was prepared in 100% by mass DMSO (dimethylsulfoxide) at 100-fold concentration (100×). Then, the resulting mixture was diluted with 1.00% by mass DMSO to each of 0.001 mM, 0.003 mM, 0.01 mM, 0.03 mM, 0.1 mM, 0.3 mM, 1 mM, 3 mM, 10 mM and 30 mM.
A reaction mixture having a formulation described in the following Table 1 was prepared. Specifically, 28.5 μL of water, 1 μL ([…]) of the above-purified kinesin spindle protein, 5 μL of a 10× reaction buffer (150 mM PIPES (1,4-piperazine ethanesulfonic acid) (pH 7.0), 10 mM magnesium chloride, 10 mM EGTA (glycol ether diamine tetraacetate)), 10 μL of 5× microtubules solution (330 μg/mL microtubules, 15 mM PIPES (pH 7.0), 1 mM magnesium chloride, 10 μM Taxol) and 0.5 μL of the above-prepared 100× compound (the compound represented by Structural Formula (1), (2), (3) or (4)) were mixed together to prepare 45 μL of a reaction mixture, which was incubated at 37° C. for 10 min. Then, 5 μL of a 100×ATP solution (10 mM ATP, 10 mM PIPES (pH 7.0)) was added to the reaction mixture to initiate the reaction. Immediately after that, the reaction mixture was incubated at 37° C. for 20 min. […]
After the reaction, 150 μL of Quench C buffer (the formulation of which is given below) was added the reaction mixture to terminate the reaction, followed by incubating at room temperature for 5 min. Then, the reaction mixture was measured for absorbance at 525 nm with a microplate reader (SpectraMax, product of Molecular Devices Co., Ltd.). […]
The kinesin spindle protein decomposes ATP into ADP and Pi (phosphoric acid). […] Thus, the amount of the formed Pi can be measured by measuring the absorbance at 525 nm. With the absorbance at 525 nm of the high control (the amount of the formed Pi) being 100, comparing the absorbance of the high control with absorbance of test groups to which the above compounds have been added can determine whether the activity of the kinesin spindle protein is inhibited.
That is, the inhibitory rate of the activity of the kinesin spindle protein can be calculated from the following calculation formula. […]

On to `CCN(CC)C(=O)CN(Cc1ccccc1)c1ccc2c(c1F)C=CC2(C)C` [Structural Formula (1)], for which, under “compound concentration 10 μM”, the “Inhibitory rate (%)” value came out at 44.5%.

As for `CC1C=Cc2cc(N(CC(=O)N(C)C)Cc3ccccc3)ccc21` (stereo not shown) [Structural Formula (4)], the “Inhibitory rate (%)” value (compound concentration 100 μM) was found to be 79.8%.

For the molecule `CCN(CC)C(=O)CN(Cc1ccccc1)c1ccc2c(c1F)CCC2=O` [Structural Formula (2), 2-(benzyl(4-fluoro-1-oxo-2,3-dihydro-1H-inden-5-yl)amino)-N,N-diethylacetamide], where the note is “compound concentration 88 μM”, the “Inhibitory rate (%)” value is reported as 50%. For `CCN(CC)C(=O)CN(Cc1ccccc1)c1ccc2c(c1)C=CC2C` (stereo not shown) [Structural Formula (3)], for the setting “compound concentration 39 μM”, the “Inhibitory rate (%)” value turned out to be 50%.
